Assays:
[1] = test system: mouse reared in long-term isolation; test: Novel object recognition test in psychiatric disorder model mouse reared in long-term isolation, single oral dose (Test Example 3); type: in vivo, ddY mouse; details: tested 24 hours after administration; for exploratory time of the novel object versus Vehicle group: FIG. 3(A)
Procedure: The action of ameliorating the lowering of the object cognitive function was examined by orally administering the compound A to the mouse reared in long-term isolation. […] In this test, the mouse reared in long-term isolation under the following condition was used as the psychiatric disorder model mouse.
3-weeks-old male ddY mice were purchased from Japan SLC, Inc. The mice were reared in the rearing chamber provided with air conditioner (Conditions: the temperature was 22° C.±1° C., the relative humidity was 50±10%, and the irradiation time was 12 hours (8:00 to 20:00)). The feeding method was that the commercially available MF powdery feed (manufactured by Oriental Yeast Co., ltd.) and tap water were taken freely.
3-weeks-old male ddY mice (n=63) were separately reared in the gray opaque cage (24×17×12 cm) in which the mice could not see the surrounding of the cage for 6 weeks. […] The mice (n=20) collectively reared in a group of 5 mice in the transparent cage (24×17×12 cm) were used as a control group.
Four days prior to the start of the experiment, long-term isolation and group-reared mice were individually acclimated to the test observation box for 10 minutes for three consecutive days. […]
24 hours after the oral administration, the evaluation test for novel object cognitive function was carried out. One object of two objects put in the observation box was replaced with the novel object and the time how long the mouse explored the novel object was measured in the test time of 5 minutes. The object cognitive function of the mouse was evaluated by Discrimination index (%) calculated using the following formula. […]
From the results obtained, the mean (Mean) and the standard error (SEM) were calculated. The significant difference was assessed between the administration group and the control group by using Student's t-test as a method of the statistical processing of the exploratory time and by using Turkey-Kramer's test as a method of the statistical processing of Discrimination index. […]

[2] = test system: mouse reared in long-term isolation; test: Forced swimming test in mouse reared in long-term isolation (Test Example 6); type: in vivo, ddY mouse; details: test 30 minutes after administration, 5 weeks isolation, FIG. 6
Procedure: The psychiatric disorder model mouse which was reared in isolation for 5 weeks was orally administered with the compound A and 30 minutes after the administration subjected to the Forced swimming test. The effect of improving depressive symptoms was examined.
The 3-weeks old male ddY mouse which was reared in isolation for 5 weeks in the same manner as in Test Example 3 was used for the test.
The compound A was dissolved in 2.5% DMSO solution in advance. After long-term isolated rearing the mice were divided into 3 groups of 7 mice and the administration groups of the compound A (the administration group of 30 mg/kg, the administration group of 10 mg/kg) and Vehicle group (the administration group of 2.5% DMSO solution) were set and the oral administration was carried out.
In 30 minutes after the oral administration, the forced swimming test was carried out in the same manner as in Test Example 5. The immobility time was measured during the test of 6 minutes and the depressive symptoms of the mouse was evaluated.
From the results obtained, the mean (Mean) and the standard error (SEM) were calculated. The significant difference was assessed between the compound A administration group and the Vehicle group by using Dunnett's test. The level of significance was set to *P<0.05. The vertical axis of the graph in FIG. 6 represents the immobility time during the test.

Compound: O=C1CC[C@H](Cc2cc(O)cc(O)c2)O1 [compound A, (R)-5-(3,5-dihydroxyphenyl)-γ-valerolactone]
- exploratory time of the novel object versus Vehicle group ([1]; oral 10 mg/kg): significantly increased
- exploratory time of the novel object versus Vehicle group ([1]; oral 30 mg/kg): significantly increased
- Discrimination index ([1]; oral 30 mg/kg, FIG. 3(B)): equal to the score obtained in the group of the mice reared in a group
- immobility time in forced swimming test versus vehicle group ([2]; oral 10 mg/kg): significantly reduced
- immobility time in forced swimming test versus vehicle group ([2]; oral 30 mg/kg): significantly reduced

From patent publication US20250120942A1, “BRAIN FUNCTION IMPROVING AGENT” (OSAKA UNIVERSITY, priority 2021, published 2025)
